23 compounds from patent publication US11919887B2, “Substituted tetrahydrofurans as modulators of sodium channels” (Vertex Pharmaceuticals Incorporated, priority 2019, dated 2024) can be followed below.

Some results are limits rather than exact numbers.

Chain of human Nav 1.8 (Q9Y5Y9 whole entry, looked up, the tested form may be a part): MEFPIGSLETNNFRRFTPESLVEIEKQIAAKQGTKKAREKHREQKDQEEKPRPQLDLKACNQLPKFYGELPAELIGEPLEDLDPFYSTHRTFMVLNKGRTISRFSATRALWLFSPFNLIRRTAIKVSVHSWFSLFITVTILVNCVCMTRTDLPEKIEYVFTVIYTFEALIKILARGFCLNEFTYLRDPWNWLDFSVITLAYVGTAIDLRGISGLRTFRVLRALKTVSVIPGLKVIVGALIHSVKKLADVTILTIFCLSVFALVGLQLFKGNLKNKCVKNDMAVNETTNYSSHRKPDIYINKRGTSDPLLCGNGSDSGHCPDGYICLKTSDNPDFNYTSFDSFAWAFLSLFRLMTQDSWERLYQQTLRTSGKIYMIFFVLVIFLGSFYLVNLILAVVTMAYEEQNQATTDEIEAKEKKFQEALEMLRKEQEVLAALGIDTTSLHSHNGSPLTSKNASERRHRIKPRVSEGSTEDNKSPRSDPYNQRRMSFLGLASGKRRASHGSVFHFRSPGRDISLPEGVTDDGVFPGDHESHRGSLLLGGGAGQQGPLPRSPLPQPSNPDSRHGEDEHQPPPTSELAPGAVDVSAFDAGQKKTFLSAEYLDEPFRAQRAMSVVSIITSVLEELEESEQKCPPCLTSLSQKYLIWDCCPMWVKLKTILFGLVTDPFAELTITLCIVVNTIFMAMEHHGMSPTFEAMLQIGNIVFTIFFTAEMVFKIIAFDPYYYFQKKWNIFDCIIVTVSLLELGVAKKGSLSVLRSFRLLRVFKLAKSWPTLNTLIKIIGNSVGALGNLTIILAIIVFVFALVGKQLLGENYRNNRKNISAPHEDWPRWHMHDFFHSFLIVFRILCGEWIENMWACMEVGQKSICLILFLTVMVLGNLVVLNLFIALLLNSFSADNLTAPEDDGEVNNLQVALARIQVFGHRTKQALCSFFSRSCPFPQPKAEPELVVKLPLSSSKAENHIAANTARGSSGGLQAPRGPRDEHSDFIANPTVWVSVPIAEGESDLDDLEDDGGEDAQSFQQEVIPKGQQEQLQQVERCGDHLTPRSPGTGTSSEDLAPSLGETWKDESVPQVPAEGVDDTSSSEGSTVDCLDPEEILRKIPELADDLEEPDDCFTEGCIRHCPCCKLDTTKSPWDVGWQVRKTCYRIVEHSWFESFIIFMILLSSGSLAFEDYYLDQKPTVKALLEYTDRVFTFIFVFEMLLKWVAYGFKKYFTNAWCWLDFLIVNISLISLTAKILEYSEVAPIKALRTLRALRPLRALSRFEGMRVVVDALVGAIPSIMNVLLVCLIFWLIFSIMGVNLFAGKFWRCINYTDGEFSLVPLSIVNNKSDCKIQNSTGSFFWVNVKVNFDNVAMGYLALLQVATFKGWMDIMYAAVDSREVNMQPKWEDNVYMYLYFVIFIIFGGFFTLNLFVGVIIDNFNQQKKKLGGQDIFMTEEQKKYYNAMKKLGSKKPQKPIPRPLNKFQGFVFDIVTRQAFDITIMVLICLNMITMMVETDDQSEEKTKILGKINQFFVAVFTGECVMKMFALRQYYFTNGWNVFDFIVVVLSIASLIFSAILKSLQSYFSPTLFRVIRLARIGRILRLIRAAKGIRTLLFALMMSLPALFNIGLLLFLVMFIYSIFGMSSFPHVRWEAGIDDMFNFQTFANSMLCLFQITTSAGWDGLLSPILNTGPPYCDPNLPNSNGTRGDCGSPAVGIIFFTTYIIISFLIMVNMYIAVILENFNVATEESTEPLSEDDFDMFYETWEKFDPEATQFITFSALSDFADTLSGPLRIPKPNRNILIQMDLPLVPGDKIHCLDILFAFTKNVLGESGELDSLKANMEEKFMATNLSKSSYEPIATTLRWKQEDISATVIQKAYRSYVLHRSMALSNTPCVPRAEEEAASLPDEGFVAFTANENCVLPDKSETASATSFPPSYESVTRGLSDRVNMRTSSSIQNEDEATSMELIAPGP

The first assay concerns the target human Nav 1.8 (Homo sapiens, UniProt Q9Y5Y9). Kind of assay: E-VIPR assay detecting and measuring Nav inhibition (HEK cells expressing truncated human Nav 1.8). The conditions noted are these: in the Absence of Human Serum in the E-VIPR Assay. It counts as cell-based. The text has this:
Sodium ion channels are voltage-dependent proteins that can be activated by inducing membrane voltage changes by applying electric fields. The electrical stimulation instrument and methods of use, referred to as E-VIPR, are described in International Publication No. WO 2002/008748 A3 and C.-J. Huang et al. Characterization of voltage-gated sodium channel blockers by electrical stimulation and fluorescence detection of membrane potential, 24 Nature Biotech. 439-46 (2006), both of which are incorporated by reference in their entirety. The instrument comprises a microtiter plate handler, an optical system for exciting the coumarin dye while simultaneously recording the coumarin and oxonol emissions, a waveform generator, a current- or voltage-controlled amplifier, and parallel electrode pairs that are inserted into assay plate wells. Under integrated computer control, this instrument passes user-programmed electrical stimulus protocols to cells within the wells of the microtiter plate.
16-20 hours prior to running the assay on E-VIPR, HEK cells expressing a truncated form of human Nav 1.8 with full channel activity were seeded into microtiter 384-well plates, pre-coated with matrigel, at a density of 25,000 cells per well. 2.5-5% KIR2.1 Bacmam virus was added to the final cell suspension before seeding into cell plates. HEK cells were grown in Dulbecco's Modified Eagle's Medium (DMEM) supplemented with 10% FBS (Fetal Bovine Serum, qualified; Sigma #F4135), 1% NEAA (Non-Essential Amino Acids, Gibco #11140), 1% HEPES (Gibco #15630), 1% Pen-Strep (Penicillin-Streptomycin; Gibco #15140) and 5 μg/ml Blasticidin (Gibco #R210-01). Cells were expanded in vented cap cell culture flasks, with 90-95% humidity and 5% CO2.
Human Serum (HS, Millipore #S1P1-01KL, or Sigma SLBR5469V and SLBR5470V as a 50%/50% mixture, for 25% assay final concentration)
Bath1 Buffer: • Sodium Chloride 160 mM (9.35 g/L), Potassium Chloride, 4.5 mM (0.335 g/L), Glucose 10 mM (1.8 g/L), Magnesium Chloride (Anhydrous) 1 mM (0.095 g/L), Calcium Chloride 2 mM (0.222 g/L), HEPES 10 mM (2.38 g/L) in water.
Na/TMA Cl Bath1 Buffer: • Sodium Chloride 96 mM (5.61 g/L), Potassium Chloride 4.5 mM (0.335 g/L), Tetramethylammonium (TMA)-Cl 64 mM (7.01 g/L), Glucose 10 mM (1.8 g/L), Magnesium Chloride (Anhydrous) 1 mM (0.095 g/L), Calcium Chloride 2 mM (0.222 g/L) HEPES 10 mM (2.38 g/L) in water.
Hexyl Dye Solution (2× concentration): • Bath1 Buffer containing 0.5% β-cyclodextrin (made fresh prior to each use, Sigma #C4767), 8 μM CC2-DMPE and 2 μM DiSBAC6(3). The solution was made by adding 10% Pluronic F127 stock equal to combined volumes of CC2-DMPE and DiSBAC6(3). The order of preparation was first mix Pluronic and CC2-DMPE, then add DiSBAC6(3), then while vortexing add Bath1/β-Cyclodextrin.
Compound Loading Buffer (2×concentration): Na/TMA Cl Bath1 Buffer containing HS (omitted in experiments run in the absence of human serum (HS)) 50%, VABSC-1 1 mM, BSA 0.2 mg/ml (in Bath-1), KCl 9 mM, DMSO 0.75%.
Assay Protocol (7 Key Steps): • 1) To reach the final concentration in each well, 400 nL of each compound was pre-spotted (in neat DMSO) into polypropylene compound plates at 250×desired final concentration from an intermediate stock concentration of 0.075 mM, in an 11 point dose response, 3-fold dilution, resulting in a top dose of 300 nM final concentration in the cell plate. Vehicle control (neat DMSO), and positive control (an established Nav1.8 inhibitor, 25 μM final in assay in DMSO) were added manually to the outermost columns of each plate respectively. The compound plate was backfilled with 45 μL per well of Compound Loading Buffer resulting in a 250 fold dilution of compound following a 1:1 transfer of compound into the cell plate (see Step 6). Final DMSO concentration for all wells in the assay was 0.625% (0.75% DMSO was supplemented to the Compound Loading Buffer for a final DMSO concentration of 0.625%). […]
For the compound `[2H]c1c(NC(=O)[C@@H]2O[C@@](C)(C(F)(F)F)[C@@H](C)[C@H]2c2ccc(F)c(F)c2OC)ccnc1C(N)=O` [Compound 129, 3-deuterio-4-[[(2R,3S,4S,5R)-3-(3,4-difluoro-2-methoxy-phenyl)-4,5-dimethyl-5-(trifluoromethyl)tetrahydrofuran-2-carbonyl]amino]pyridine-2-carboxamide], the IC50 (in general, the concentration that inhibits the measured activity by half) is less than 0.01 µM.

The assay is the same for the next values; noted with them: in the Absence of Human Serum in the E-VIPR Assay; read-out: IC50.
Turning to `COc1nc(C(F)F)ccc1[C@@H]1[C@@H](C(=O)Nc2ccnc(C(N)=O)c2)O[C@](C)(C(F)(F)F)[C@@H]1C` (stereo in doubt) [Compound 141, rel-(2S,3R,4R,5S)-4-[[3-[6-(difluoromethyl)-2-methoxy-3-pyridyl]-4,5-dimethyl-5-(trifluoromethyl)tetrahydrofuran-2-carbonyl]amino]pyridine-2-carboxamide], the IC50 is greater than 1 µM. On to `COc1cc(C(F)(F)F)ncc1[C@H]1[C@H](C(=O)Nc2ccnc(C(N)=O)c2)O[C@@](C)(C(F)(F)F)[C@H]1C` (racemic) [compound 139], for which the IC50 was greater than 1 µM.

Regarding `COc1c([C@H]2[C@H](C(=O)Nc3cncc(C(N)=O)n3)O[C@@](C)(C(F)(F)F)[C@H]2C)ccc(F)c1F` [Compound 117, 6-[[(2R,3S,4S,5R)-3-(3,4-difluoro-2-methoxy-phenyl)-4,5-dimethyl-5-(trifluoromethyl)tetrahydrofuran-2-carbonyl]amino]pyrazine-2-carboxamide], the IC50 was in the range of 0.01 to 0.1 µM.

Staying with this assay, now noted: in the Presence of Human Serum in the E-VIPR Assay; read-out: IC50.
On to `COc1c([C@H]2C[C@@H](C(C)(C)C)O[C@@H]2C(=O)Nc2ccnc(C(N)=O)c2)ccc(F)c1F` (single isomer, unassigned) [Compound 65], for which the IC50 was greater than 1 µM.

As to `COc1c([C@@H]2C[C@@](C)(CC(F)(F)F)O[C@H]2C(=O)Nc2ccnc(C(N)=O)c2)ccc(F)c1F` (single isomer, unassigned) [Compound 80], the IC50 was greater than 1 µM. On the same count and under the same terms, to `COc1c([C@@H]2[C@@H](C(=O)Nc3ccnc(C(N)=O)c3)OC(C)(C)[C@@H]2C)ccc(F)c1F` (single isomer, unassigned) [Compound 106] belongs greater than 1 µM. Still for that read-out and setting: to `CNC(=O)c1cc(NC(=O)[C@H]2O[C@](C)(C(F)(F)F)C[C@@H]2c2ccc(F)c(Cl)c2OC)ccn1` (single isomer, unassigned) [Compound 58] belongs greater than 1 µM; to `COc1cc(F)ccc1[C@@H]1C[C@](C)(C(F)(F)F)O[C@@H]1C(=O)Nc1ccnc(C(N)=O)c1` (relative stereo) [Compound 70, rel-(2S,3S,5R)-4-[[3-(4-fluoro-2-methoxy-phenyl)-5-methyl-5-(trifluoromethyl)tetrahydrofuran-2-carbonyl]amino]pyridine-2-carboxamide], greater than 1 µM; to `COc1c([C@@H]2[C@@H](C)[C@@](C)(C(F)F)O[C@H]2C(=O)Nc2ccnc(C(N)=O)c2)ccc(F)c1F` (stereo in doubt) [Compound 96, rel-(2R,3S,4R,5S)-4-[[3-(3,4-difluoro-2-methoxy-phenyl)-5-(difluoromethyl)-4,5-dimethyl-tetrahydrofuran-2-carbonyl]amino]pyridine-2-carboxamide], greater than 1 µM. Turning to `CCOc1c([C@H]2[C@H](C(=O)Nc3ccnc(C(N)=O)c3)O[C@@](C)(C(F)(F)F)[C@H]2C)ccc(F)c1F` [Compound 9, (2R,3S,4S,5R)-4-[[3-(2-ethoxy-3,4-difluoro-phenyl)-4,5-dimethyl-5-(trifluoromethyl)tetrahydrofuran-2-carbonyl]amino]pyridine-2-carboxamide], the IC50 is less than 0.01 µM. The same measure, in the same setting: the same measure for `COc1cc(F)ccc1[C@H]1[C@H](C(=O)Nc2ccnc(C(N)=O)c2)O[C@@](C)(C(F)(F)F)[C@H]1C` (single isomer, unassigned) [Compound 3a]: greater than 1 µM; for `C[C@H]1[C@@H](c2ccc(F)cc2OC(F)F)[C@H](C(=O)Nc2ccc(F)c(C(N)=O)c2)O[C@@]1(C)C(F)(F)F` (single isomer, unassigned) [Compound 32]: less than 0.01 µM; for `C[C@@H]1[C@H](c2ccc(F)c(F)c2OC(F)F)[C@@H](C(=O)Nc2cccc(C(N)=O)c2)O[C@]1(C)C(F)(F)F` (single isomer, unassigned) [compound 51]: greater than 1 µM. The same measure, in the same setting: to `Cc1c(F)ccc([C@H]2[C@H](C(=O)Nc3ccnc(C(N)=O)c3)O[C@@](C)(C(F)(F)F)[C@H]2C)c1OC(F)F` (stereo in doubt) [Compound 17, rel-(2R,3S,4S,5R)-4-[[3-[2-(difluoromethoxy)-4-fluoro-3-methyl-phenyl]-4,5-dimethyl-5-(trifluoromethyl)tetrahydrofuran-2-carbonyl]amino]pyridine-2-carboxamide] belongs less than 0.01 µM. On the same count and under the same terms, to `COc1c([C@@H]2[C@H](C)[C@H](C(F)(F)F)O[C@H]2C(=O)Nc2ccnc(C(N)=O)c2)ccc(F)c1F` (relative stereo) [Compound 24, rel-(2R,3S,4S,5R)-4-[[3-(3,4-difluoro-2-methoxy-phenyl)-4-methyl-5-(trifluoromethyl)tetrahydrofuran-2-carbonyl]amino]pyridine-2-carboxamide] belongs greater than 1 µM; to `COc1c([C@H]2C[C@@](C)(C(C)(F)F)O[C@@H]2C(=O)Nc2ccnc(C(N)=O)c2)ccc(F)c1F` (single isomer, unassigned) [Compound 85], greater than 1 µM; to `C[C@H]1[C@@H](c2ccc(F)c(F)c2O)[C@H](C(=O)Nc2ccnc(C(N)=O)c2)O[C@@]1(C)C(F)(F)F` [Compound 27, (2R,3S,4S,5R)-4-[[3-(3,4-difluoro-2-hydroxy-phenyl)-4,5-dimethyl-5-(trifluoromethyl)tetrahydrofuran-2-carbonyl]amino]pyridine-2-carboxamide], 0.01 to 0.1 µM. Regarding `Cc1c(F)ccc([C@H]2C[C@@](C)(C(F)(F)F)O[C@@H]2C(=O)Nc2ccnc(C(N)=O)c2)c1F` (single isomer, unassigned) [Compound 75], the IC50 is greater than 1 µM. On the same count and under the same terms, to `[2H]C([2H])([2H])Oc1c([C@H]2[C@H](C(=O)Nc3cc[n+]([O-])c(C(N)=O)c3)O[C@@](C)(C(F)(F)F)[C@H]2C)ccc(F)c1F` [Compound 56, 4-[[(2R,3S,4S,5R)-3-[3,4-difluoro-2-(trideuteriomethoxy)phenyl]-4,5-dimethyl-5-(trifluoromethyl)tetrahydrofuran-2-carbonyl]amino]-1-oxido-pyridin-1-ium-2-carboxamide] belongs less than 0.01 µM; to `COc1cc(F)ccc1[C@@H]1[C@@H](C(=O)Nc2ccnc(C(N)=O)c2)O[C@](C)(C(F)(F)F)[C@H]1C` (single isomer, unassigned) [Compound 38], greater than 1 µM; to `COc1cc(F)ccc1[C@@H]1[C@@H](C(=O)Nc2ccnc(C(N)=O)c2)O[C@@](C)(C(F)(F)F)[C@@H]1C` (single isomer, unassigned) [Compound 41], 0.01 to 0.1 µM. Take `Cc1c(F)ccc([C@H]2[C@H](C(=O)Nc3ccnc(C(N)=O)c3)O[C@@](C)(C(F)(F)F)[C@H]2C)c1OC(F)F` (stereo in doubt) [Compound 16, rel-(2R,3S,4S,5R)-4-[[3-[2-(difluoromethoxy)-4-fluoro-3-methyl-phenyl]-4,5-dimethyl-5-(trifluoromethyl)tetrahydrofuran-2-carbonyl]amino]pyridine-2-carboxamide]: the IC50 was greater than 1 µM.
